Test results taken from patent publication US11098055B2, “Ester ACC inhibitors and uses thereof” (Gilead Apollo, LLC, priority 2015, dated 2021).
Converted amounts (≈) assume the structure as drawn.

Tests used:
[1] = system: C. albicans ATCC 90028; experiment: Anti-Fungal (Candida) Activity Assay, broth microtiter MIC; assay type: cell-based; conditions: ATCC90028, 48 h, Table 3b (additional results), 3 replicates, MIC read at 48 h
Outline: (§1)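 Broth microdilution per CLSI M27-A3 in RPMI 1640 + MOPS, at a final inoculum of 2.5×10^3 CFU/mL. Compound DMSO stocks were diluted in water to a 128 μg/mL working solution. MIC was read visually against the growth control at 48 h.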

[2] = system: C. parapsilosis ATCC 22019; experiment: as above; assay type: cell-based; conditions: Lodderomyces parapsilosis, ATCC22019, 48 h, Table 3b (additional results); 3 replicates; MIC read at 48 h
Outline: as §1

[3] = system: C. krusei ATCC 6258; experiment: as above; assay type: cell-based, Candida krusei; conditions: Pichia kudriavzevii, ATCC6258, 48 h, Table 3b (additional results); 3 replicates; MIC read at 48 h
Outline: as §1

[4] = system: Rhizoctonia solani (Rs); experiment: Growth inhibition assay of fungal pathogens; assay type: cell-based; conditions: 48 h, Table 4b, read-out: Concentration at 90% Inhibition Rs
Outline: (§2)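 Spores, or mycelial plugs for Rhizoctonia, in 17% V8 medium (¼ PDB for plugs) were exposed to compound at final 50, 10 and 2 ppm or 2, 0.4 and 0.08 ppm, with 2% DMSO. Growth was read by OD600 with blank subtraction plus visual rating; percent inhibition at 48 h is relative to 2% DMSO control.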

[5] = system: Fusarium virguliforme (Fv); experiment: Growth inhibition assay of fungal pathogens; assay type: cell-based; conditions: 48 h, Table 4b, read-out: Concentration at 90% Inhibition Fv
Outline: as §2

[6] = system: Botrtyis cinerea (Bc); experiment: Growth inhibition assay of fungal pathogens; assay type: cell-based; conditions: 48 h, Table 4b, read-out: Concentration at 90% Inhibition Bc
Outline: as §2

[7] = system: Collectotrichum graminicola (Cg); experiment: Growth inhibition assay of fungal pathogens; assay type: cell-based; conditions: 48 h, Table 4b, read-out: Concentration at 90% Inhibition Cg
Outline: as §2

[8] = system: Diplodia maydis (Dm); experiment: Growth inhibition assay of fungal pathogens; assay type: cell-based; conditions: Stenocarpella maydis, 48 h, Table 4b, read-out: Concentration at 90% Inhibition Dm
Outline: as §2

[9] = system: Phytophthora capsici (Pc); experiment: Growth inhibition assay of fungal pathogens; assay type: cell-based; conditions: 48 h, Table 4b, read-out: Concentration at 90% Inhibition Pc
Outline: as §2

[10] = system: Fusarium moniliforme (Fm); experiment: Growth inhibition assay of fungal pathogens; assay type: cell-based; conditions: Fusarium verticillioides, 48 h, Table 4b, read-out: Concentration at 90% Inhibition Fm
Outline: as §2

[11] = system: Septoria tritici (St); experiment: Growth inhibition assay of fungal pathogens; assay type: cell-based; conditions: Zymoseptoria tritici, 48 h, Table 4b, read-out: Concentration at 90% Inhibition St
Outline: as §2

SMILES	MIC [1] [µg/mL]	MIC [2] [µg/mL]	MIC [3] [µg/mL]	IC90 [4] [µg/mL]	IC90 [5] [µg/mL]	IC90 [6] [µg/mL]	IC90 [7] [µg/mL]	IC90 [8] [µg/mL]	IC90 [9] [µg/mL]	IC90 [10] [µg/mL]	IC90 [11] [µg/mL]
CCOC(=O)c1sc2c(c1C)c(=O)n([C@@H](C)C(N)=O)c(=O)n2C[C@H](OCCC#N)c1cc(F)ccc1OC [Compound I-25, ethyl 3-((S)-1-amino-1-oxopropan-2-yl)-1-((R)-2-(2-cyanoethoxy)-2-(5-fluoro-2-methoxyphenyl)ethyl)-5-methyl-2,4-dioxo-1,2,3,4-tetrahydrothieno[2,3-d]pyrimidine-6-carboxylate]	2.1 to 4 (≈ 3.84 to 7.32 µM)	2.1 to 4 (≈ 3.84 to 7.32 µM)	1.1 to 2 (≈ 2.01 to 3.66 µM)	0.4 (≈ 0.732 µM)	≥ 50	≥ 50	≥ 50	≥ 50	≥ 50	10 (≈ 18.3 µM)	≥ 50
CCOC(=O)c1sc2c(c1C)c(=O)n([C@H](C)C(N)=O)c(=O)n2C[C@H](OCCC#N)c1cc(F)ccc1OC [Compound I-26, ethyl 3-((R)-1-amino-1-oxopropan-2-yl)-1-((R)-2-(2-cyanoethoxy)-2-(5-fluoro-2-methoxyphenyl)ethyl)-5-methyl-2,4-dioxo-1,2,3,4-tetrahydrothieno[2,3-d]pyrimidine-6-carboxylate]	2.1 to 4 (≈ 3.84 to 7.32 µM)	> 4.1	0.25 to 1 (≈ 0.457 to 1.83 µM)	2 (≈ 3.66 µM)	≥ 50	10 (≈ 18.3 µM)	≥ 50	≥ 50	≥ 50	10 (≈ 18.3 µM)	≥ 50
CCOC(=O)c1sc2c(c1C)c(=O)n([C@H](C)C(=O)N(C)C(C)C)c(=O)n2C[C@H](OCCC#N)c1cc(F)ccc1OC [Compound I-27, ethyl 1-((R)-2-(2-cyanoethoxy)-2-(5-fluoro-2-methoxy-phenyl)ethyl)-3-((R)-1-(isopropyl(methyl)amino)-1-oxopropan-2-yl)-5-methyl-2,4-dioxo-1,2,3,4-tetrahydrothieno[2,3-d]pyrimidine-6-carboxylate]	2.1 to 4 (≈ 3.48 to 6.64 µM)	2.1 to 4 (≈ 3.48 to 6.64 µM)	0.25 to 1 (≈ 0.415 to 1.66 µM)	2 (≈ 3.32 µM)	0.4 (≈ 0.664 µM)	2 (≈ 3.32 µM)	2 (≈ 3.32 µM)	2 (≈ 3.32 µM)	≥ 50	0.08 (≈ 0.133 µM)	≥ 50
CCOC(=O)c1sc2c(c1C)c(=O)n([C@@H](C)C(=O)N(C)C(C)C)c(=O)n2C[C@H](OCCC#N)c1cc(F)ccc1OC [Compound I-28, ethyl 1-((R)-2-(2-cyanoethoxy)-2-(5-fluoro-2-methoxy-phenyl)-ethyl)-3-((S)-1-(isopropyl(methyl)amino)-1-oxopropan-2-yl)-5-methyl-2,4-dioxo-1,2,3,4-tetrahydrothieno[2,3-d]pyrimidine-6-carboxylate]	2.1 to 4 (≈ 3.48 to 6.64 µM)	2.1 to 4 (≈ 3.48 to 6.64 µM)	0.25 to 1 (≈ 0.415 to 1.66 µM)	0.08 (≈ 0.133 µM)	0.4 (≈ 0.664 µM)	2 (≈ 3.32 µM)	10 (≈ 16.6 µM)	10 (≈ 16.6 µM)	≥ 50	0.4 (≈ 0.664 µM)	10 (≈ 16.6 µM)
CCNC(=O)C(C)(C)n1c(=O)c2c(C)c(C(=O)OCC)sc2n(C[C@H](OCCC#N)c2cc(F)ccc2OC)c1=O [Compound I-29, (R)-ethyl 1-(2-(2-cyanoethoxy)-2-(5-fluoro-2-methoxy-phenyl)ethyl)-3-(1-(ethylamino)-2-methyl-1-oxopropan-2-yl)-5-methyl-2,4-dioxo-1,2,3,4-tetrahydrothieno[2,3-d]pyrimidine-6-carboxylate]	1.1 to 2 (≈ 1.87 to 3.4 µM)	2.1 to 4 (≈ 3.57 to 6.8 µM)	2.1 to 4 (≈ 3.57 to 6.8 µM)	0.08 (≈ 0.136 µM)	2 (≈ 3.4 µM)	2 (≈ 3.4 µM)	0.4 (≈ 0.68 µM)	0.4 (≈ 0.68 µM)	≥ 50	0.08 (≈ 0.136 µM)	10 (≈ 17 µM)
CCOC(=O)c1sc2c(c1C)c(=O)n(C(C)(C)C(=O)NC(C)C)c(=O)n2C[C@H](OCCC#N)c1ccccc1OC [Compound I-31, ethyl (R)-1-(2-(2-cyanoethoxy)-2-(2-methoxyphenyl)ethyl)-3-(1-(isopropylamino)-2-methyl-1-oxopropan-2-yl)-5-methyl-2,4-dioxo-1,2,3,4-tetrahydrothieno[2,3-d]pyrimidine-6-carboxylate]	0.25 to 1 (≈ 0.428 to 1.71 µM)	1.1 to 2 (≈ 1.88 to 3.42 µM)	0.25 to 1 (≈ 0.428 to 1.71 µM)	2 (≈ 3.42 µM)	0.4 (≈ 0.684 µM)	0.4 (≈ 0.684 µM)	0.4 (≈ 0.684 µM)	0.4 (≈ 0.684 µM)	2 (≈ 3.42 µM)	0.08 (≈ 0.137 µM)	10 (≈ 17.1 µM)
CCNC(=O)C(C)(C)n1c(=O)c2c(C)c(C(=O)OCC)sc2n(C[C@H](OCCC#N)c2ccccc2OC)c1=O [Compound I-32, ethyl (R)-1-(2-(2-cyanoethoxy)-2-(2-methoxyphenyl)ethyl)-3-(1-(ethylamino)-2-methyl-1-oxopropan-2-yl)-5-methyl-2,4-dioxo-1,2,3,4-tetrahydrothieno[2,3-d]pyrimidine-6-carboxylate]	2.1 to 4 (≈ 3.68 to 7.01 µM)	> 4.1	0.25 to 1 (≈ 0.438 to 1.75 µM)	2 (≈ 3.5 µM)	2 (≈ 3.5 µM)	2 (≈ 3.5 µM)	2 (≈ 3.5 µM)	2 (≈ 3.5 µM)	≥ 50	0.08 (≈ 0.14 µM)	10 (≈ 17.5 µM)
CCOC(=O)c1sc2c(c1C)c(=O)n(C(C)(C)C(=O)NC(C)C)c(=O)n2C[C@H](OCC#N)c1cc(F)ccc1OC [Compound I-33, ethyl (R)-1-(2-(cyanomethoxy)-2-(5-fluoro-2-methoxy-phenyl)ethyl)-3-(1-(isopropylamino)-2-methyl-1-oxopropan-2-yl)-5-methyl-2,4-dioxo-1,2,3,4-tetrahydrothieno[2,3-d]pyrimidine-6-carboxylate]	0.25 to 1 (≈ 0.425 to 1.7 µM)	2.1 to 4 (≈ 3.57 to 6.8 µM)	2.1 to 4 (≈ 3.57 to 6.8 µM)	0.4 (≈ 0.68 µM)	0.4 (≈ 0.68 µM)	0.4 (≈ 0.68 µM)	2 (≈ 3.4 µM)	2 (≈ 3.4 µM)	≥ 50	0.08 (≈ 0.136 µM)	10 (≈ 17 µM)
CCOC(=O)c1sc2c(c1C)c(=O)n(C(C)(C)C(=O)NC(C)C)c(=O)n2C[C@H](OC[C@H](C)C#N)c1cc(F)ccc1OC [Compound I-34, ethyl 1-((R)-2-((R)-2-cyanopropoxy)-2-(5-fluoro-2-methoxyphenyl)ethyl)-3-(1-(isopropylamino)-2-methyl-1-oxopropan-2-yl)-5-methyl-2,4-dioxo-1,2,3,4-tetrahydrothieno[2,3-d]pyrimidine-6-carboxylate]	0.25 to 1 (≈ 0.405 to 1.62 µM)	2.1 to 4 (≈ 3.41 to 6.49 µM)	2.1 to 4 (≈ 3.41 to 6.49 µM)	0.08 (≈ 0.13 µM)	0.4 (≈ 0.649 µM)	0.4 (≈ 0.649 µM)	0.08 (≈ 0.13 µM)	0.4 (≈ 0.649 µM)	10 (≈ 16.2 µM)	0.08 (≈ 0.13 µM)	2 (≈ 3.24 µM)
CCOC(=O)c1sc2c(c1C)c(=O)n(C(C)(C)C(=O)NC(C)C)c(=O)n2C[C@H](OC[C@@H](C)C#N)c1cc(F)ccc1OC [Compound I-35, ethyl 1-((R)-2-((S)-2-cyanopropoxy)-2-(5-fluoro-2-methoxyphenyl)ethyl)-3-(1-(isopropylamino)-2-methyl-1-oxopropan-2-yl)-5-methyl-2,4-dioxo-1,2,3,4-tetrahydrothieno[2,3-d]pyrimidine-6-carboxylate]	0.25 to 1 (≈ 0.405 to 1.62 µM)	0.25 to 1 (≈ 0.405 to 1.62 µM)	2.1 to 4 (≈ 3.41 to 6.49 µM)	0.08 (≈ 0.13 µM)	0.4 (≈ 0.649 µM)	0.4 (≈ 0.649 µM)	0.08 (≈ 0.13 µM)	0.4 (≈ 0.649 µM)	≥ 50	0.08 (≈ 0.13 µM)	10 (≈ 16.2 µM)
CCOC(=O)c1sc2c(c1C)c(=O)n(C(C)(C)C(=O)NC(C)C)c(=O)n2C[C@H](OCCS(C)(=O)=O)c1cc(F)ccc1OC [Compound I-36, ethyl (R)-1-(2-(5-fluoro-2-methoxyphenyl)-2-(2-(methylsulfonyl)ethoxy)ethyl)-3-(1-(isopropylamino)-2-methyl-1-oxopropan-2-yl)-5-methyl-2,4-dioxo-1,2,3,4-tetrahydrothieno[2,3-d]pyrimidine-6-carboxylate]	0.25 to 1 (≈ 0.381 to 1.52 µM)	2.1 to 4 (≈ 3.2 to 6.1 µM)	2.1 to 4 (≈ 3.2 to 6.1 µM)	0.4 (≈ 0.61 µM)	2 (≈ 3.05 µM)	2 (≈ 3.05 µM)	0.4 (≈ 0.61 µM)	2 (≈ 3.05 µM)	≥ 50	0.4 (≈ 0.61 µM)	≥ 50
CCOC(=O)c1sc2c(c1C)c(=O)n(C(C)(C)C(=O)NC(C)C)c(=O)n2C[C@H](OCC(C)(C)C#N)c1cc(F)ccc1OC [Compound I-37, ethyl (R)-1-(2-(2-cyano-2-methylpropoxy)-2-(5-fluoro-2-methoxyphenyl)ethyl)-3-(1-(isopropylamino)-2-methyl-1-oxopropan-2-yl)-5-methyl-2,4-dioxo-1,2,3,4-tetrahydrothieno[2,3-d]pyrimidine-6-carboxylate]	0.25 to 1 (≈ 0.396 to 1.59 µM)	2.1 to 4 (≈ 3.33 to 6.34 µM)	2.1 to 4 (≈ 3.33 to 6.34 µM)	2 (≈ 3.17 µM)	0.4 (≈ 0.634 µM)	0.4 (≈ 0.634 µM)	0.4 (≈ 0.634 µM)	0.4 (≈ 0.634 µM)	≥ 50	0.08 (≈ 0.127 µM)	≥ 50
